Several values for one entry are separate records, joined by “and”; a condition that tells them apart may be missing. Equal values may be shown once.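 Exposure lasted 48 hours, with cells grown in 96-well plates and compounds tested at five concentrations. GI50: concentration for 50% inhibition of growth. TGI marks complete inhibition of growth.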
tested on: MDA-MB-468 breast; assay: NCI anticancer screen, dose series, 48 h

Row | Compound | GI50 | TGI
1 | O=[N+]([O-])c1cnc(Sc2ccncn2)c([N+](=O)[O-])c1 | 1720 nM | 3.55 µM
2 | CCN(CC)c1ccc(/C=N/NC(=O)c2ccc(S(N)(=O)=O)cc2)cc1 | 376 nM | 3.66 µM
3 | CCNC(=O)C[C@@H]1N=C(c2ccc(Cl)cc2)c2cc(OC)ccc2-n2c(C)nnc21 | 2880 nM | > 100 µM
4 | COc1ccc(C(=O)Cn2c(C(=O)c3ccc(OC)cc3)nc3ccccc32)cc1 | 431 nM | > 22.8 µM
5 | COc1ccc(C(=O)Cn2c(C(=O)c3ccc(Cl)cc3)nc3ccccc32)cc1 | 6130 nM | > 100 µM
6 | CC(C)(C)Nc1nc2c(OCCc3ccccc3)cccn2c1-c1ccccc1Cl | 2500 nM | 9.17 µM
7 | O=C(Nc1ccc(S(=O)(=O)Nc2nccs2)cc1)c1cccnc1Nc1cccc(Cl)c1 | 13900 nM | 52.2 µM
8 | Oc1c(CN2CCC(N3CCOCC3)CC2)cc(Cc2cc(CN3CCC(N4CCOCC4)CC3)c(O)c3ncccc23)c2cccnc12 | 1700 nM | 6.6 µM
9 | COC(=O)/C=C/c1cc(O)c2c(c1)C(C(=O)OC)C(c1ccc(O)c(O)c1)O2 (configuration not stated) | 521 nM and 646 nM | 9.94 µM and 11.3 µM
10 | O=C(/C=C/c1ccco1)c1ccc(Nc2nc(Nc3ccc(F)cc3)nc(Nc3ccc(Cl)cc3)n2)cc1 | 22800 nM | > 100 µM
11 | Cc1ccc(S(=O)ON2CCC(C(=O)O)(c3ccccc3)CC2)cc1 (configuration not stated) | > 100000 nM | > 100 µM
12 | CC(=O)Oc1ccccc1C(=O)Nc1ccc(C(=O)/C=C/c2ccncc2)cc1 | 22300 nM | 98 µM
13 | CS(=O)(=O)c1ccc(Oc2cc(F)cc(C#N)c2)c2c1[C@H](O)[C@H](F)[C@@H]2F | > 100000 nM | > 100 µM
14 | OC(c1cc2cc(Br)ccc2c2cc(Br)ccc12)C1CCCCN1 (configuration not stated) | 1630 nM | 3.08 µM
15 | Cn1c(C(N)=O)cc2c1-c1nc(Nc3ccccc3)ncc1CCC2 | 3520 nM | 15 µM
16 | CCCCCCCCCCCCN1C(C)=CS/C1=C\C=C\c1scc(C)[n+]1CCCCCCCCCCCC | 251 nM | 1.39 µM
17 | CNc1ccccc1C(=O)N/N=C/C=C/c1ccccc1 | 503 nM | 15.1 µM
18 | O=C(Nc1ccc(Cl)c([N+](=O)[O-])c1)Nc1nc2ccccc2s1 | 3530 nM | 9.76 µM

Row | Compound | GI50 | TGI
19 | CC/C=C\C[C@H](O)C/C=C1/C(=O)C=C[C@@H]1C/C=C\CCCC(=O)NC(C)C | 1670 nM | 3.89 µM
20 | CCn1c(=O)c(-c2ccn[nH]2)cc2c(C)nc(N)nc21 | 861 nM | 6.25 µM
21 | CN1CCN(Cc2ccc(-c3cc4ncnc(Nc5ccc(OCc6cccc(F)c6)c(Cl)c5)c4s3)o2)CC1 | 292 nM | 3.22 µM
22 | O=[N+]([O-])c1ccc(N2CCN(Cc3ccccc3)CC2)c2c1no[n+]2[O-] | 1120 nM | 2.68 µM
23 | O=C(Nc1ccc(-c2nc3cc4ccccc4cc3[nH]2)cc1)c1cccc(Br)c1 | 2410 nM | 6.54 µM
24 | Cn1ccnc1C(=O)/C=C/c1ccc(CC(=O)Nc2ccc(Cl)cc2)cc1 | 1030 nM | 11.3 µM
25 | C=C1C(=O)O[C@H]2[C@H]1CC/C(COC(=O)C(=O)c1c[nH]c3ccccc13)=C\CC[C@@]1(C)O[C@@H]21 | 1980 nM | 3.84 µM
26 | Nc1c(C(=O)Nc2ccccc2)sc2nc3c(cc12)CCCCCC3 | 312 nM | 3.73 µM
27 | COc1cccc(-c2nn(-c3ccccc3)cc2-c2ccnc(NCCNS(=O)(=O)c3ccc(Cl)cc3)c2)c1 | 3900 nM | 64.6 µM
28 | N#CC1=C(N)Oc2cc3c(cc2C1c1cccs1)OCO3 (configuration not stated) | 219 nM | 3.03 µM
29 | CC(C)C[C@@H](NC(=O)[C@@H](Cc1ccccc1)NC(=O)c1cnccn1)B1O[C@H]2[C@H](O)[C@@H](C(=O)NCCCC[C@@H]3NC(=O)[C@@H](Cc4ccccc4)NC(=O)[C@H](CC(=O)O)NC(=O)CNC(=O)[C@H](CCCN=C(N)N)NC3=O)O[C@@H](CN)[C@H]2O1 | 2.93 nM and 5 nM | 0.00906 µM and 0.00535 µM
30 | CC(C)C[C@H](NC(=O)[C@H](Cc1ccccc1)n1ccc(N2CCCCC2)cc1=O)B(O)O | 264 nM | 0.745 µM
31 | O=C1/C(=C/c2cccc([N+](=O)[O-])c2)COc2ccc(O)c(O)c21 | 1330 nM | 3.12 µM
32 | CCN1C(=O)C/C(=C\C(C)=O)Nc2ccccc21 | > 100000 nM | > 100 µM
33 | COc1cc(/C=C(/C)[N+](=O)[O-])ccc1O | 1580 nM and 1780 nM | 3.2 µM and 3.62 µM
34 | Cc1ccc(Nc2nc(NCCO)c3ccccc3n2)cc1C | 402 nM | 3.13 µM
35 | COc1ccc(CN2C(=O)/C(=C\c3cc(OC)c(OC)c(OC)c3)c3cc(OC)ccc32)cc1 | 1940 nM | 4.52 µM
36 | CCc1ccc(-c2nnc(COc3ccc(-c4nc5ccc(C)cc5[nH]4)cc3OC)o2)cc1 | 3260 nM | 16.3 µM
